Consider 9 molecules from PubChem BioAssay (NCI).

Among the test systems are TK-10 renal; M14 melanoma; IGROV1 ovarian; MDA-N; SNB-19 CNS; MCF7 breast; MOLT-4 leukemia; HS 578T breast; SK-MEL-2 melanoma; UACC-62 melanoma; SK-MEL-5 melanoma; T-47D breast; HCT-15 colon; KM12 colon; SF-539 CNS; UACC-257 melanoma; HL-60(TB) leukemia.
Test in all cases: NCI tumour cell line growth inhibition, 48 h

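Grown in 96-well plates, cells were treated for 48 hours with each compound at five concentrations. Insufficient inhibition: endpoint recorded as highest concentration tested. TGI: total growth inhibition.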 Some results are limits rather than exact numbers.

For `Cc1nnc2sc(Cl)nn12`, the TGI is 68.5 µM with TK-10 renal; 28.1 µM with M14 melanoma; 30.7 µM with IGROV1 ovarian; 48.9 µM with MDA-N; over 100 µM in the assay with SNB-19 CNS; 29.5 µM with MCF7 breast. The TGI was 29.3 µM in the assay with MOLT-4 leukemia; over 100 µM with HS 578T breast; 90.3 µM in the assay with SK-MEL-2 melanoma; 18.9 µM in the assay with UACC-62 melanoma; 25.2 µM in the assay on SK-MEL-5 melanoma; 73.4 µM in the assay on T-47D breast. Moreover, the TGI worked out at 45.6 µM with HCT-15 colon, 28.6 µM in the assay with KM12 colon and 47.1 µM in the assay with SF-539 CNS.

For `C=CC(CBr)CCC(Br)C(C)(C)Br` (stereo not drawn), the TGI in the assay with TK-10 renal, in the assay on M14 melanoma, in the assay on IGROV1 ovarian, in the assay on MDA-N, in the assay on SNB-19 CNS and in the assay on UACC-257 melanoma was over 10 µM throughout. The TGI in the assay with MCF7 breast, with MOLT-4 leukemia, with HS 578T breast, in the assay on SK-MEL-2 melanoma, in the assay on SK-MEL-5 melanoma and with T-47D breast was over 10 µM in each case. Also, the TGI with HCT-15 colon, with KM12 colon and in the assay with SF-539 CNS was over 10 µM in each case.

For the molecule `O=C(Nc1cc2c(=O)[nH]c3ccccc3c2oc1=O)c1cnccn1`, the TGI with TK-10 renal, in the assay on M14 melanoma, in the assay with IGROV1 ovarian, in the assay with MDA-N, with SNB-19 CNS and with UACC-257 melanoma was over 100 µM throughout. For the same molecule, the TGI in the assay on MCF7 breast, in the assay on MOLT-4 leukemia, in the assay with SK-MEL-2 melanoma, with UACC-62 melanoma, in the assay with SK-MEL-5 melanoma and in the assay on T-47D breast was over 100 µM each time. In addition, the TGI in the assay on HCT-15 colon, in the assay with KM12 colon and in the assay with SF-539 CNS was over 100 µM each time.

Turning to `CN(C)C(=S)N1C(=S)N(c2ccccc2)C(=Nc2ccccc2)C1=Nc1ccccc1`, the TGI in the assay with TK-10 renal, with IGROV1 ovarian, in the assay on MDA-N, in the assay with SNB-19 CNS, with UACC-257 melanoma and with MOLT-4 leukemia was over 100 µM throughout. In addition, the TGI in the assay with HL-60(TB) leukemia, with HS 578T breast, with SK-MEL-2 melanoma, in the assay with UACC-62 melanoma, in the assay with SK-MEL-5 melanoma and in the assay on T-47D breast was over 100 µM throughout. In addition, the TGI with HCT-15 colon, in the assay on KM12 colon and with SF-539 CNS was over 100 µM in each case.

As for `COc1ccc(/C=N/n2c(=O)[nH]c3ccccc3c2=O)cc1`, the TGI in the assay with TK-10 renal, in the assay with M14 melanoma, in the assay with IGROV1 ovarian, in the assay with MDA-N, in the assay with SNB-19 CNS and with UACC-257 melanoma was over 100 µM throughout. The TGI in the assay on MCF7 breast, in the assay with MOLT-4 leukemia, in the assay on HS 578T breast, in the assay with SK-MEL-2 melanoma, in the assay with UACC-62 melanoma and with SK-MEL-5 melanoma was over 100 µM throughout. For the same molecule, the TGI in the assay with T-47D breast, in the assay on HCT-15 colon, in the assay with KM12 colon and in the assay on SF-539 CNS was over 100 µM in each case.

As for `Cc1n[n+](CC(=O)c2ccccc2)c2sc(N)nn12`, the TGI with TK-10 renal, in the assay with M14 melanoma, in the assay with IGROV1 ovarian, in the assay with MDA-N, in the assay with SNB-19 CNS and in the assay with UACC-257 melanoma was over 100 µM each time. Further, the TGI with MCF7 breast, in the assay on MOLT-4 leukemia, in the assay on HS 578T breast, in the assay on SK-MEL-2 melanoma, in the assay with UACC-62 melanoma and in the assay on SK-MEL-5 melanoma was over 100 µM throughout. In addition, the TGI in the assay on T-47D breast, in the assay on HCT-15 colon and in the assay with KM12 colon was over 100 µM each time.

In the case of `Cc1cc2nc3c(C#N)c(-c4ccccc4)/c(=C\Nc4ccc(Cl)cc4)c(=O)n3c2cc1C`, the TGI in the assay on TK-10 renal, in the assay with M14 melanoma, with MDA-N, with SNB-19 CNS, with UACC-257 melanoma and with MCF7 breast was over 100 µM throughout. For the same molecule, the TGI with SK-MEL-2 melanoma, in the assay with SK-MEL-5 melanoma, in the assay on T-47D breast, in the assay on HCT-15 colon, in the assay on KM12 colon and with SF-539 CNS was over 100 µM in each case.

Regarding `NC1OC(COC(=O)c2ccccc2)C(O)C(OC(=O)c2ccccc2)C1OC(=O)c1ccccc1` (stereo not drawn), the TGI in the assay with TK-10 renal was over 100 µM; with M14 melanoma it was 58.1 µM; in the assay with IGROV1 ovarian, 35.9 µM; in the assay with MDA-N it was 46.5 µM; with SNB-19 CNS, over 100 µM; with UACC-257 melanoma, 47.2 µM. The TGI in the assay on MCF7 breast was 68.2 µM; in the assay on MOLT-4 leukemia, 54 µM; in the assay with HS 578T breast, 42.6 µM; in the assay with SK-MEL-2 melanoma, 96.7 µM; in the assay on UACC-62 melanoma, 29.4 µM; with SK-MEL-5 melanoma it was 27.5 µM. For the same molecule, the TGI in the assay with T-47D breast and in the assay on HCT-15 colon was over 100 µM each time.

Consider `C1=Nc2ccc(cc2)N=Cc2ccccc2OCc2cccc(n2)COc2ccccc21`, for which the TGI is over 100 µM in the assay with TK-10 renal; over 100 µM in the assay with M14 melanoma; over 100 µM in the assay with IGROV1 ovarian; over 100 µM in the assay on MDA-N; 75.1 µM in the assay on SNB-19 CNS; over 100 µM with UACC-257 melanoma. In addition, the TGI in the assay with MCF7 breast, in the assay with MOLT-4 leukemia, with HL-60(TB) leukemia, in the assay with SK-MEL-2 melanoma, with UACC-62 melanoma and in the assay on SK-MEL-5 melanoma was over 100 µM each time. Further, the TGI in the assay on T-47D breast was over 100 µM; in the assay with HCT-15 colon, over 100 µM; in the assay on KM12 colon, over 100 µM; with SF-539 CNS, 81.6 µM.
